Measurements as given in the supplement of paper PMC13380429.

What was measured:
Calu-3 [1] = assay: relative viability EC50 (midpoint between 100% and the lowest measured viability); higher = less toxic; conditions: 72 h
U2OS [2] = assay: as above; conditions: 72 h
Caco-2 [3] = assay: as above; conditions: 72 h
Vero E6 [4] = assay: as above; conditions: 72 h
HepG2 [5] = assay: as above; conditions: 72 h
A549-ACE2 [6] = assay: drug-induced phospholipidosis relative to tamoxifen; higher = more phospholipidosis
Calu-3 [7] = assay: cell viability relative to DMSO; higher = less toxic; conditions: 72 h
U2OS [8] = assay: as above; conditions: 72 h
Caco-2 [9] = assay: as above; conditions: 72 h
Vero E6 [10] = assay: as above; conditions: 72 h
HepG2 [11] = assay: as above; conditions: 72 h
[12] = test system: A549-ACE2 infected with SARS-CoV-2; assay: SARS-CoV-2 infection rate relative to DMSO; higher = more infection; conditions: 24 h
A549-ACE2 [13] = assay: phospholipidosis EC50; higher = less potent phospholipidosis inducer
[14] = test system: A549-ACE2 infected with SARS-CoV-2; assay: morphology score (similarity to uninfected cells); higher = more like uninfected cells; conditions: 24 h
Calu-3 [15] = assay: drug sensitivity score (DSS) for viability; higher = more toxic; extreme values may be limits of the assay; conditions: 72 h
U2OS [16] = assay: as above; conditions: 72 h
Caco-2 [17] = assay: as above; conditions: 72 h
Vero E6 [18] = assay: as above; conditions: 72 h
HepG2 [19] = assay: as above; conditions: 72 h
[20] = test system: A549-ACE2 infected with SARS-CoV-2; assay: cell count relative to DMSO; higher = less toxic; conditions: 24 h

COc1cc2c(NC3CCN(C(C)C)CC3)nc(N3CCC(F)(F)CC3)nc2cc1OCCCN1CCCC1 [UNC0642]
Conditions	drug sensitivity score	relative viability EC50 [µM]
Caco-2 [3]	–	> 10
Caco-2 [17]	0	–
Calu-3 [1]	–	2.78
Calu-3 [15]	4.2	–
HepG2 [5]	–	3.34
HepG2 [19]	4	–
U2OS [2]	–	> 10
U2OS [16]	0.7	–
Vero E6 [4]	–	> 10
Vero E6 [18]	0	–

drug-induced phospholipidosis [%], A549-ACE2 [6]
Conditions	0.3 µM	0.833333 µM	3.33333 µM	6.66667 µM	10 µM	30 µM
24 h	4.47	9.42	29.6	35.7	32.6	5.01
48 h	8.91	12.1	34	48.6	51.8	0.44
72 h	9.24	11	36.7	55.6	62.4	–

Conditions	SARS-CoV-2 infection rate [%]	cell count [%]	cell viability [%]	morphology score	phospholipidosis EC50 [µM]
A549-ACE2 [13], 48 h	–	–	–	–	1.19
A549-ACE2 [13], 72 h	–	–	–	–	3.66
Caco-2 [9], 1 nM	–	–	101	–	–
Caco-2 [9], 10 nM	–	–	92.5	–	–
Caco-2 [9], 100 nM	–	–	104	–	–
Caco-2 [9], 1000 nM	–	–	106	–	–
Caco-2 [9], 10000 nM	–	–	99.7	–	–
Calu-3 [7], 1 nM	–	–	93.9	–	–
Calu-3 [7], 10 nM	–	–	95.1	–	–
Calu-3 [7], 100 nM	–	–	95.3	–	–
Calu-3 [7], 1000 nM	–	–	96.6	–	–
Calu-3 [7], 10000 nM	–	–	32.9	–	–
HepG2 [11], 1 nM	–	–	95.1	–	–
HepG2 [11], 10 nM	–	–	103	–	–
HepG2 [11], 100 nM	–	–	106	–	–
HepG2 [11], 1000 nM	–	–	102	–	–
HepG2 [11], 10000 nM	–	–	24.8	–	–
U2OS [8], 1 nM	–	–	98.6	–	–
U2OS [8], 10 nM	–	–	95.4	–	–
U2OS [8], 100 nM	–	–	100	–	–
U2OS [8], 1000 nM	–	–	98.6	–	–
U2OS [8], 10000 nM	–	–	81.1	–	–
Vero E6 [10], 1 nM	–	–	96.6	–	–
Vero E6 [10], 10 nM	–	–	102	–	–
Vero E6 [10], 100 nM	–	–	91.6	–	–
Vero E6 [10], 1000 nM	–	–	108	–	–
Vero E6 [10], 10000 nM	–	–	105	–	–
[12], 0.3 µM	87	–	–	–	–
[12], 3 µM	21	–	–	–	–
[12], 10 µM	13	–	–	–	–
[12], 30 µM	35	–	–	–	–
[14], 0.3 µM	–	–	–	0.09	–
[14], 3 µM	–	–	–	0.76	–
[14], 10 µM	–	–	–	0.09	–
[14], 30 µM	–	–	–	-0.23	–
[20], 0.3 µM	–	94	–	–	–
[20], 3 µM	–	122	–	–	–
[20], 10 µM	–	123	–	–	–
[20], 30 µM	–	89	–	–	–

OCc1cc(C(O)CNCCCCCCOCCCCc2ccccc2)ccc1O (stereo not given) [salmeterol]
Conditions	drug sensitivity score	relative viability EC50 [µM]
Caco-2 [3]	–	> 10
Caco-2 [17]	0.1	–
Calu-3 [1]	–	> 10
Calu-3 [15]	0	–
HepG2 [19]	1	–
U2OS [2]	–	> 10
U2OS [16]	0	–
Vero E6 [4]	–	> 10
Vero E6 [18]	0	–

drug-induced phospholipidosis [%], A549-ACE2 [6]
Conditions	0.3 µM	0.833333 µM	3.33333 µM	6.66667 µM	10 µM	30 µM
24 h	-0.12	-0.14	9.06	65.1	85.7	80.3
48 h	2.35	2.68	8.06	52.9	83.5	117
72 h	3.27	1.57	6.45	37.9	80.7	130

Conditions	SARS-CoV-2 infection rate [%]	cell count [%]	cell viability [%]	morphology score	phospholipidosis EC50 [µM]
A549-ACE2 [13], 24 h	–	–	–	–	5.09
A549-ACE2 [13], 48 h	–	–	–	–	7.38
A549-ACE2 [13], 72 h	–	–	–	–	8.86
Caco-2 [9], 1 nM	–	–	97.4	–	–
Caco-2 [9], 10 nM	–	–	96.6	–	–
Caco-2 [9], 100 nM	–	–	95.1	–	–
Caco-2 [9], 1000 nM	–	–	92.7	–	–
Caco-2 [9], 10000 nM	–	–	86.6	–	–
Calu-3 [7], 1 nM	–	–	112	–	–
Calu-3 [7], 10 nM	–	–	97.4	–	–
Calu-3 [7], 100 nM	–	–	100	–	–
Calu-3 [7], 1000 nM	–	–	99	–	–
Calu-3 [7], 10000 nM	–	–	98.9	–	–
HepG2 [11], 1 nM	–	–	107	–	–
HepG2 [11], 10 nM	–	–	107	–	–
HepG2 [11], 100 nM	–	–	94	–	–
HepG2 [11], 1000 nM	–	–	105	–	–
HepG2 [11], 10000 nM	–	–	70.8	–	–
U2OS [8], 1 nM	–	–	103	–	–
U2OS [8], 10 nM	–	–	97.7	–	–
U2OS [8], 100 nM	–	–	99.9	–	–
U2OS [8], 1000 nM	–	–	99.3	–	–
U2OS [8], 10000 nM	–	–	95.2	–	–
Vero E6 [10], 1 nM	–	–	101	–	–
Vero E6 [10], 10 nM	–	–	106	–	–
Vero E6 [10], 100 nM	–	–	101	–	–
Vero E6 [10], 1000 nM	–	–	107	–	–
Vero E6 [10], 10000 nM	–	–	97.5	–	–
[12], 0.3 µM	107	–	–	–	–
[12], 3 µM	91	–	–	–	–
[12], 10 µM	19	–	–	–	–
[12], 30 µM	17	–	–	–	–
[14], 0.3 µM	–	–	–	-0.02	–
[14], 3 µM	–	–	–	0.15	–
[14], 10 µM	–	–	–	0.89	–
[14], 30 µM	–	–	–	0.58	–
[20], 0.3 µM	–	101	–	–	–
[20], 3 µM	–	108	–	–	–
[20], 10 µM	–	121	–	–	–
[20], 30 µM	–	102	–	–	–

CNC(=O)c1cc(Oc2ccc(NC(=O)Nc3cc(C(C)(C)C)nn3-c3ccc4ncccc4c3)c(F)c2)ccn1 [rebastinib]
Conditions	drug sensitivity score	relative viability EC50 [µM]
Caco-2 [3]	–	3.94
Caco-2 [17]	3.1	–
Calu-3 [1]	–	1.94
Calu-3 [15]	4.6	–
HepG2 [5]	–	0.638
HepG2 [19]	13.3	–
U2OS [2]	–	3.62
U2OS [16]	4.4	–
Vero E6 [4]	–	3.74
Vero E6 [18]	4.3	–

drug-induced phospholipidosis [%], A549-ACE2 [6]
Conditions	0.3 µM	0.833333 µM	3.33333 µM	6.66667 µM	10 µM
24 h	-0.9	-2.36	-1.54	-1.91	-2.66
48 h	-0.69	-2.5	-1.43	-0.4	0.77
72 h	0.586	-3.51	-2.2	1.53	5.87

Conditions	SARS-CoV-2 infection rate, [12] [%]	cell count, [20] [%]	cell viability, Caco-2 [9] [%]	cell viability, Calu-3 [7] [%]	cell viability, HepG2 [11] [%]	cell viability, U2OS [8] [%]	cell viability, Vero E6 [10] [%]	morphology score, [14]
1 nM	–	–	98.4	100	104	97.9	98.2	–
10 nM	–	–	89.9	97.5	102	96.4	96.8	–
100 nM	–	–	95.4	105	108	97	102	–
0.1 µM	97	104	–	–	–	–	–	0.31
0.3 µM	92	103	–	–	–	–	–	0.24
1000 nM	–	–	114	90.8	28.6	108	112	–
1 µM	92	102	–	–	–	–	–	0.22
3 µM	95	96	–	–	–	–	–	0.12
10000 nM	–	–	30	42.6	6.1	9.6	9.9	–

COc1cc2c(cc1OC)-c1c/c(=N\c3c(C)cc(C)cc3C)n(C)c(=O)n1CC2 [trequinsin]
Conditions	drug sensitivity score	relative viability EC50 [µM]
Caco-2 [3]	–	> 10
Caco-2 [17]	0	–
Calu-3 [1]	–	> 10
Calu-3 [15]	0.2	–
HepG2 [5]	–	> 10
HepG2 [19]	0.9	–
U2OS [2]	–	> 10
U2OS [16]	0	–
Vero E6 [4]	–	> 10
Vero E6 [18]	0	–

drug-induced phospholipidosis [%], A549-ACE2 [6]
Conditions	0.3 µM	0.833333 µM	3.33333 µM	6.66667 µM	10 µM	30 µM
24 h	3.52	0.24	10.1	3.08	1.51	20.8
48 h	3.24	1.48	5.48	3.57	5.51	32.1
72 h	4.95	1.02	3.84	4.01	6.79	–

Conditions	SARS-CoV-2 infection rate, [12] [%]	cell count, [20] [%]	cell viability, Caco-2 [9] [%]	cell viability, Calu-3 [7] [%]	cell viability, HepG2 [11] [%]	cell viability, U2OS [8] [%]	cell viability, Vero E6 [10] [%]	morphology score, [14]
1 nM	–	–	97.5	102	102	96.8	92.2	–
10 nM	–	–	91.9	89.5	94.4	99.7	97.1	–
100 nM	–	–	97.2	94.3	102	97.6	97	–
0.3 µM	97	100	–	–	–	–	–	0.06
1000 nM	–	–	97	100	92.8	99.6	92.7	–
3 µM	93	103	–	–	–	–	–	0.26
10000 nM	–	–	86.4	85	84.1	95.5	89.1	–
10 µM	59	111	–	–	–	–	–	0.67
30 µM	19	110	–	–	–	–	–	0.75

CCN(CC)C(=S)S [ditiocarb-sodium-trihydrate]
Conditions	drug sensitivity score	relative viability EC50 [µM]
Caco-2 [3]	–	2.11
Caco-2 [17]	6.4	–
Calu-3 [15]	2.8	–
HepG2 [5]	–	3.73
HepG2 [19]	3	–
U2OS [2]	–	> 10
U2OS [16]	0.2	–
Vero E6 [4]	–	> 10
Vero E6 [18]	0	–

drug-induced phospholipidosis [%], A549-ACE2 [6]
Conditions	0.3 µM	0.833333 µM	3.33333 µM	6.66667 µM	10 µM
24 h	0.51	1.07	-2.14	-0.7	-0.24
48 h	2.4	1.02	0.85	0.97	0.53
72 h	3.87	-0.805	0.971	1.39	0.827

Conditions	SARS-CoV-2 infection rate, [12] [%]	cell count, [20] [%]	cell viability, Caco-2 [9] [%]	cell viability, Calu-3 [7] [%]	cell viability, HepG2 [11] [%]	cell viability, U2OS [8] [%]	cell viability, Vero E6 [10] [%]	morphology score, [14]
1 nM	–	–	94.1	105	97.5	101	92.8	–
10 nM	–	–	97	93.1	97.9	98.9	102	–
100 nM	–	–	89.3	108	100	101	96.3	–
0.3 µM	108	97	–	–	–	–	–	-0.22
1000 nM	–	–	89.2	89	108	101	103	–
3 µM	98	102	–	–	–	–	–	0.08
10000 nM	–	–	16.7	70.2	35.6	85.5	99	–
10 µM	95	107	–	–	–	–	–	0.19
30 µM	62	106	–	–	–	–	–	0.61
